# Columns and labels:
# A549/ATCC = conditions: for Total growth inhibition (TGI): Non-Small Cell Lung; for GI50: Non-Small-Cell Lung; for CC50: read-out: 50% lethal concentration (LC50), Non-Small Cell Lung
# HOP-92 = conditions: for Total growth inhibition (TGI) / CC50: HOP-92, Non-Small Cell Lung; for GI50: HOP-92, Non-Small-Cell Lung; for CC50: read-out: 50% lethal concentration (LC50)
# HS 578T = conditions: for CC50: read-out: 50% lethal concentration (LC50), Breast
# SN12C = conditions: for GI50 / Total growth inhibition (TGI): Renal; for CC50: read-out: 50% lethal concentration (LC50), Renal
# SNB-19 = assay type: cell-based; conditions: SNB-19, CNS
# CCRF-CEM = conditions: for GI50 / Total growth inhibition (TGI): Leukemia; for CC50: read-out: 50% lethal concentration (LC50), Leukemia
# HL-60(TB) = conditions: for GI50 / Total growth inhibition (TGI): Leukemia; for CC50: read-out: 50% lethal concentration (LC50), Leukemia
# TK-10 = assay type: cell-based; conditions: TK-10, Renal
# OVCAR-4 = assay type: cell-based; conditions: OVCAR-4, Ovarian
# M14 = assay type: cell-based; conditions: M14, Melanoma
# SW-620 = conditions: SW-620, Colon; for CC50: read-out: 50% lethal concentration (LC50)
# UACC-257 = conditions: UACC-257, Melanoma
# LOX IMVI = conditions: for GI50 / Total growth inhibition (TGI): Melanoma; for CC50: read-out: 50% lethal concentration (LC50), Melanoma
# SK-MEL-2 = conditions: SK-MEL-2, Melanoma
# HOP-62 = conditions: for Total growth inhibition (TGI) / CC50: HOP-62, Non-Small Cell Lung; for GI50: HOP-62, Non-Small-Cell Lung; for CC50: read-out: 50% lethal concentration (LC50)
# COLO 205 = conditions: COLO 205, Colon
# T-47D = conditions: for GI50 / Total growth inhibition (TGI): Breast; for CC50: read-out: 50% lethal concentration (LC50), Breast
# PC-3 = conditions: PC-3, Prostate; for CC50: read-out: 50% lethal concentration (LC50)
# BT-549 = assay type: cell-based; conditions: BT-549, Breast
# MALME-3M = conditions: for GI50 / Total growth inhibition (TGI): Melanoma
# K-562 = conditions: K-562, Leukemia; for CC50: read-out: 50% lethal concentration (LC50)
# SNB-75 = conditions: SNB-75, CNS; for CC50: read-out: 50% lethal concentration (LC50)
# NCI-H522 = conditions: for Total growth inhibition (TGI) / CC50: NCI-H522, Non-Small Cell Lung; for GI50: NCI-H522, Non-Small-Cell Lung; for CC50: read-out: 50% lethal concentration (LC50)
# NCI-H23 = conditions: for Total growth inhibition (TGI) / CC50: NCI-H23, Non-Small Cell Lung; for GI50: NCI-H23, Non-Small-Cell Lung; for CC50: read-out: 50% lethal concentration (LC50)
# HT29 = conditions: HT29, Colon; for CC50: read-out: 50% lethal concentration (LC50)
# OVCAR-8 = conditions: OVCAR-8, Ovarian; for CC50: read-out: 50% lethal concentration (LC50)
# UO-31 = conditions: UO-31, Renal; for CC50: read-out: 50% lethal concentration (LC50)
# SR = conditions: for GI50 / Total growth inhibition (TGI): Leukemia; for CC50: read-out: 50% lethal concentration (LC50), Leukemia
# UACC-62 = conditions: UACC-62, Melanoma; for CC50: read-out: 50% lethal concentration (LC50)
# A498 = conditions: A498, Renal; for CC50: read-out: 50% lethal concentration (LC50)
# U251 = conditions: U251, CNS
# [1] = read-out: 50% lethal concentration (LC50)
structure (smiles),measurement,setting,value
C=C1CCC2C3(C)COC(c4cn(-c5ccccc5)nc4-c4cccc([N+](=O)[O-])c4)OC3CCC2(C)C1CC=C1C(=O)OCC1O (stereo not drawn) [1b],Total growth inhibition (TGI),A549/ATCC,> 100 µM
same,GI50,A549/ATCC,3.62 µM
same,CC50,A549/ATCC,> 100 µM
same,Total growth inhibition (TGI),HOP-92,3.64 µM
same,GI50,HOP-92,1.86 µM
same,CC50,HOP-92,7.11 µM
same,GI50,HS 578T; Breast,2.69 µM
same,CC50,HS 578T,> 100 µM
same,GI50,SN12C,2.93 µM
same,Total growth inhibition (TGI),SN12C,10.3 µM
same,CC50,SN12C,> 100 µM
same,GI50,SNB-19,3.64 µM
same,Total growth inhibition (TGI),SNB-19,15 µM
same,CC50,SNB-19; [1],60 µM
same,GI50,CCRF-CEM,1.14 µM
same,Total growth inhibition (TGI),CCRF-CEM,5.01 µM
same,CC50,CCRF-CEM,> 100 µM
same,GI50,HL-60(TB),1.73 µM
same,Total growth inhibition (TGI),HL-60(TB),> 100 µM
same,CC50,HL-60(TB),> 100 µM
same,GI50,TK-10,2.22 µM
same,Total growth inhibition (TGI),TK-10,5.82 µM
same,CC50,TK-10; [1],> 100 µM
same,GI50,OVCAR-4,4.05 µM
same,Total growth inhibition (TGI),OVCAR-4,> 100 µM
same,CC50,OVCAR-4; [1],> 100 µM
same,GI50,M14,2.08 µM
same,LC50 (50% lethal concentration),M14,9.85 µM
same,Total growth inhibition (TGI),M14,4.52 µM
same,GI50,SW-620,2.21 µM
same,Total growth inhibition (TGI),SW-620,5.13 µM
same,CC50,SW-620,> 100 µM
same,GI50,UACC-257,1.8 µM
same,Total growth inhibition (TGI),UACC-257,3.68 µM
same,CC50,UACC-257; [1],7.53 µM
same,GI50,LOX IMVI,1.72 µM
same,Total growth inhibition (TGI),LOX IMVI,3.34 µM
same,CC50,LOX IMVI,6.48 µM
same,GI50,SK-MEL-2,1.78 µM
same,Total growth inhibition (TGI),SK-MEL-2,3.51 µM
same,CC50,SK-MEL-2; [1],6.94 µM
same,Total growth inhibition (TGI),HOP-62,12.4 µM
same,GI50,HOP-62,3.15 µM
same,CC50,HOP-62,> 100 µM
same,GI50,COLO 205,2.41 µM
same,Total growth inhibition (TGI),COLO 205,5.06 µM
same,CC50,COLO 205; [1],12.7 µM
same,GI50,T-47D,1.76 µM
same,Total growth inhibition (TGI),T-47D,5.02 µM
same,CC50,T-47D,> 100 µM
same,GI50,PC-3,2.75 µM
same,Total growth inhibition (TGI),PC-3,9.04 µM
same,CC50,PC-3,> 100 µM
same,GI50,BT-549,1.94 µM
same,Total growth inhibition (TGI),BT-549,3.8 µM
same,GI50,MALME-3M,1.78 µM
same,Total growth inhibition (TGI),MALME-3M,3.55 µM
same,CC50,"MALME-3M; read-out: 50% lethal concentration (LC50), Melanoma",7.05 µM
same,GI50,K-562,2.16 µM
same,Total growth inhibition (TGI),K-562,> 100 µM
same,CC50,K-562,> 100 µM
same,GI50,SNB-75,7.34 µM
same,Total growth inhibition (TGI),SNB-75,50 µM
same,CC50,SNB-75,> 100 µM
same,Total growth inhibition (TGI),NCI-H522,3.41 µM
same,GI50,NCI-H522,1.75 µM
same,CC50,NCI-H522,6.65 µM
same,Total growth inhibition (TGI),NCI-H23,3.55 µM
same,GI50,NCI-H23,1.83 µM
same,CC50,NCI-H23,6.87 µM
same,GI50,HT29,1.82 µM
same,Total growth inhibition (TGI),HT29,4.26 µM
same,CC50,HT29,9.95 µM
same,GI50,NCI/ADR-RES; Ovarian,2.98 µM
same,GI50,OVCAR-8,1.9 µM
same,Total growth inhibition (TGI),OVCAR-8,5.04 µM
same,CC50,OVCAR-8,> 100 µM
same,GI50,UO-31,1.82 µM
same,Total growth inhibition (TGI),UO-31,5.46 µM
same,CC50,UO-31,35.7 µM
same,GI50,SR,3.46 µM
same,Total growth inhibition (TGI),SR,> 100 µM
same,CC50,SR,> 100 µM
same,GI50,UACC-62,1.69 µM
same,Total growth inhibition (TGI),UACC-62,3.46 µM
same,CC50,UACC-62,7.06 µM
same,GI50,A498,1.9 µM
same,Total growth inhibition (TGI),A498,45.4 µM
same,CC50,A498,> 100 µM
same,GI50,U251,1.74 µM
same,Total growth inhibition (TGI),U251,3.35 µM
same,CC50,U251; [1],6.46 µM
C=C1CCC2C3(C)COC(c4cn(-c5ccccc5)nc4-c4ccc(C)cc4)OC3CCC2(C)C1CC=C1C(=O)OCC1O (stereo not drawn) [1i],Total growth inhibition (TGI),A549/ATCC,13.5 µM
same,GI50,A549/ATCC,3.09 µM
same,CC50,A549/ATCC,> 100 µM
same,Total growth inhibition (TGI),HOP-92,3.14 µM
same,GI50,HOP-92,1.43 µM
same,CC50,HOP-92,6.88 µM
same,GI50,HS 578T; Breast,1.85 µM
same,Total growth inhibition (TGI),HS 578T; Breast,3.41 µM
same,CC50,HS 578T,6.28 µM
same,GI50,SN12C,1.66 µM
same,Total growth inhibition (TGI),SN12C,3.44 µM
same,CC50,SN12C,7.15 µM
same,GI50,SNB-19,1.36 µM
same,GI50,CCRF-CEM,8.4 µM
same,Total growth inhibition (TGI),CCRF-CEM,> 100 µM
same,CC50,CCRF-CEM,> 100 µM
same,GI50,HL-60(TB),2.17 µM
same,Total growth inhibition (TGI),HL-60(TB),> 100 µM
same,CC50,HL-60(TB),> 100 µM
same,GI50,TK-10,1.33 µM
same,GI50,OVCAR-4,1.92 µM
same,Total growth inhibition (TGI),OVCAR-4,4.27 µM
same,GI50,M14,1.76 µM
same,Total growth inhibition (TGI),M14,3.61 µM
same,GI50,SW-620,5.42 µM
same,CC50,SW-620,> 100 µM
same,GI50,UACC-257,1.74 µM
same,Total growth inhibition (TGI),UACC-257,3.47 µM
same,GI50,LOX IMVI,1.43 µM
same,Total growth inhibition (TGI),LOX IMVI,2.74 µM
same,CC50,LOX IMVI,5.25 µM
same,GI50,SK-MEL-2,1.79 µM
same,Total growth inhibition (TGI),SK-MEL-2,3.28 µM
same,Total growth inhibition (TGI),HOP-62,4.44 µM
same,GI50,HOP-62,2.12 µM
same,CC50,HOP-62,9.27 µM
same,GI50,COLO 205,1.97 µM
same,Total growth inhibition (TGI),COLO 205,4.5 µM
same,GI50,T-47D,1.14 µM
same,Total growth inhibition (TGI),T-47D,3.55 µM
same,CC50,T-47D,> 100 µM
same,GI50,PC-3,1.92 µM
same,CC50,PC-3,> 100 µM
same,GI50,BT-549,1.2 µM
same,Total growth inhibition (TGI),BT-549,3.02 µM
same,GI50,MALME-3M,2.46 µM
same,Total growth inhibition (TGI),MALME-3M,4.28 µM
same,GI50,K-562,3.82 µM
same,Total growth inhibition (TGI),K-562,> 100 µM
same,CC50,K-562,> 100 µM
same,GI50,SNB-75,1.71 µM
same,Total growth inhibition (TGI),SNB-75,2.99 µM
same,CC50,SNB-75,6.55 µM
same,Total growth inhibition (TGI),NCI-H522,3.46 µM
same,GI50,NCI-H522,1.75 µM
same,CC50,NCI-H522,6.86 µM
same,Total growth inhibition (TGI),NCI-H23,3.5 µM
same,GI50,NCI-H23,1.76 µM
same,CC50,NCI-H23,6.96 µM
same,GI50,HT29,1.9 µM
same,Total growth inhibition (TGI),HT29,4.58 µM
same,CC50,HT29,> 100 µM
same,GI50,NCI/ADR-RES; Ovarian,1.65 µM
same,Total growth inhibition (TGI),NCI/ADR-RES; Ovarian,3.71 µM
same,CC50,"NCI/ADR-RES; read-out: 50% lethal concentration (LC50), Ovarian",8.34 µM
same,GI50,OVCAR-8,1.67 µM
same,Total growth inhibition (TGI),OVCAR-8,3.51 µM
same,CC50,OVCAR-8,7.37 µM
same,GI50,UO-31,1.77 µM
same,Total growth inhibition (TGI),UO-31,2.67 µM
same,CC50,UO-31,5.36 µM
same,GI50,SR,2.74 µM
same,Total growth inhibition (TGI),SR,> 100 µM
same,CC50,SR,> 100 µM
same,GI50,UACC-62,1.64 µM
same,Total growth inhibition (TGI),UACC-62,3.15 µM
same,CC50,UACC-62,6.04 µM
same,GI50,A498,4.03 µM
same,Total growth inhibition (TGI),A498,15.8 µM
same,CC50,A498,48.8 µM
same,GI50,U251,2.61 µM
same,Total growth inhibition (TGI),U251,3.12 µM
